Marks after values point to notes of the source that are not given here.
Settings: pH 2.3

Log P | Structure (SMILES)
3.05 | CCOC(=O)C(C#N)=C(NC(C)C(F)(F)F)c1cccnc1OC (racemic) [Compound 807]

Same assay, conditions: pH 2.7

Structure (SMILES) | Log P
CCOC(=O)C(C#N)=C(NC(C)c1cscn1)c1cccnc1Cl (racemic) [Compound 275] | 2.4^[a]
CCOC(=O)C(C#N)=C(NC(C)c1ccn(C)n1)c1cccnc1Cl (racemic) [Compound 276] | 2.3^[a]
CCOC(=O)C(C#N)=C(NC(C)c1c(C)nn(C)c1C)c1cccnc1Cl (racemic) [Compound 277] | 2.3^[a]
CCOC(=O)C(C#N)=C(NC(C)c1nc2ccccc2[nH]1)c1cccnc1Cl (racemic) [Compound 279] | 2^[a]
CCOC(=O)C(C#N)=C(NC(C)c1c(C)sc2c1CCCC2)c1cccnc1Cl (racemic) [Compound 280] | 4.4^[a]
CCOC(=O)C(C#N)=C(NC(C)c1ccc(Cl)cc1)c1cn(C)nc1OC (racemic) [Compound 506] | 3.51^[a]
CCOC(=O)C(C#N)=C(NC(C)c1ccc(F)cc1)c1ccsc1Br (racemic) [Compound 531] | 3.89^[a]
CCOC(=O)C(C#N)=C(NC(C)c1ccc(Cl)cc1)c1ccncc1Cl (racemic) [Compound 541] | 3.78^[a]
CCOC(=O)C(C#N)=C(NC(C)c1ccc(Cl)cc1)c1ccncc1F (racemic) [Compound 546] | 3.48^[a]
CCOC(=O)C(C#N)=C(NC(C)c1ccc(C(C)C)cc1)c1cn(C)nc1C(F)F (racemic) [Compound 550] | 4.2^[a]
CCOC(=O)C(C#N)=C(NC(C)c1ccc(Cl)cc1Cl)c1cn(C)nc1C(F)F (racemic) [Compound 552] | 3.96^[a]
CCOC(=O)C(C#N)=C(NC(C)c1ccccc1Cl)c1cn(C)nc1C(F)F (racemic) [Compound 553] | 3.46^[a]
CCOC(=O)C(C#N)=C(NC(C)c1cccc(Cl)c1)c1cn(C)nc1C(F)F (racemic) [Compound 554] | 3.55^[a]
CCOC(=O)C(C#N)=C(NC(c1ccc(N(C)C)cc1)C(F)(F)F)c1cn(C)nc1C(F)F (racemic) [Compound 556] | 3.78^[a]
CCOC(=O)C(C#N)=C(NC(CC)c1cccc(Cl)c1)c1cn(C)nc1C(F)F (racemic) [Compound 558] | 3.87^[a]
CCOC(=O)C(C#N)=C(NC(C)CN(C)C)c1cn(C)nc1C(F)F (racemic) [Compound 578] | 1.13^[a]
CCOC(=O)C(C#N)=C(NCC(C)N)c1cn(C)nc1C(F)F (racemic) [Compound 579] | 0.84^[a]
CCOC(=O)C(C#N)=C(NC(C)CN(C)C)c1c(C)nn(C)c1F (racemic) [Compound 584] | 0.96^[a]

Structure (SMILES) | Log P
CCOC(=O)C(C#N)=C(NC(C)CN(C)C)c1nsc(Cl)c1Cl (racemic) [Compound 588] | 1.41^[a]
CCOC(=O)C(C#N)=C(NC(C)CN)c1ncc(C(F)(F)F)cc1Cl (racemic) [Compound 589] | 1.59^[a]
CCOC(=O)C(C#N)=C(NC(C)C(=O)OCC)c1sccc1C(F)(F)F (racemic) [Compound 656] | 3.44^[a]
CCOC(=O)C(C#N)=C(NC(C(=O)OC)C(C)C)c1sccc1C(F)(F)F (racemic) [Compound 658] | 3.62^[a]
COC(=O)C(C#N)=C(NC(C)COc1c(C)cccc1C)c1sc(C)nc1C(F)(F)F (racemic) [Compound 662] | 4.34^[a]
COCC(C)NC(=C(C#N)C(=O)OC)c1sc(C)nc1C(F)(F)F (racemic) [Compound 663] | 2.75^[a]
CCOC(=O)C(C)NC(=C(C#N)C(=O)OC)c1sc(C)nc1C(F)(F)F (racemic) [Compound 664] | 2.96^[a]
COC(=O)C(C#N)=C(NC(C(=O)OC)C(C)C)c1sc(C)nc1C(F)(F)F (racemic) [Compound 666] | 3.29^[a]
CCOC(=O)C(C#N)=C(NC(C)COc1c(C)cccc1C)c1sccc1Br (racemic) [Compound 670] | 4.86^[a]
CCOC(=O)C(C#N)=C(NC(C)COC)c1sccc1Br (racemic) [Compound 671] | 3.17^[a]
CCOC(=O)C(C#N)=C(NC(C)C(=O)Nc1ccc2ccccc2c1)c1sc(C)nc1C(F)(F)F (racemic) [Compound 676] | 3.99^[a]
CCOC(=O)C(C#N)=C(NC(C)COc1c(C)cccc1C)c1sc(C)nc1C(F)(F)F (racemic) [Compound 677] | 4.7^[a]
CCOC(=O)C(C#N)=C(NC(C)CC(C)C)c1cc(C)oc1C (racemic) [Compound 779] | 4.35^[a]
CCOC(=O)C(C#N)=C(NC(C)CC(C)C)c1sc(C)nc1C(F)(F)F (racemic) [Compound 784] | 4.29^[a]
CCOC(=O)C(C#N)=C(NC(C)CC(C)C)c1ccsc1Br (racemic) [Compound 785] | 4.41^[a]
CCCCCCC(C)NC(=C(C#N)C(=O)OCC)c1c(C)nn(C)c1F (racemic) [Compound 813] | 4.51^[a]
CCCCCCC(C)NC(=C(C#N)C(=O)OCC)c1sccc1Br (racemic) [Compound 814] | 5.48^[a]

Further lines, results first:

Log P | Structure (SMILES)
2.23^[a] | CCOC(=O)C(C#N)=C(NC(C)Cn1cccn1)c1cccnc1Cl (racemic) [Compound 278]
4.96^[a] | CCOC(=O)C(C#N)=C(NC(C)c1ccc(Cl)cc1)c1cc(Cl)sc1Cl (racemic) [Compound 499]
3.15^[a] | CCOC(=O)C(C#N)=C(Nc1ccccc1SC)c1cn(C)nc1C(C)F (racemic) [Compound 521]
4.54^[a] | CCOC(=O)C(C#N)=C(NC(C)c1ccc(Cl)cc1)c1sc(Cl)nc1Cl (racemic) [Compound 526]
4.56^[a] | CCOC(=O)C(C#N)=C(NC(C)CCc1ccccc1)c1ccsc1Br (racemic) [Compound 538]
4.2^[a] | CCOC(=O)C(C#N)=C(NC(C)c1ccc(Cl)cc1)c1cn(C)cc1C(F)(F)F (racemic) [Compound 542]
4.21^[a] | CCOC(=O)C(C#N)=C(NC(C)c1ccc(Cl)cc1)c1ccnc(Cl)c1Cl (racemic) [Compound 544]
4.21^[a] | CCOC(=O)C(C#N)=C(NCC(c1ccccc1)C(C)C)c1cccnc1Cl (racemic) [Compound 545]
3.23^[a] | CCOC(=O)C(C#N)=C(NC1(c2c(F)cccc2F)CC1)c1cn(C)nc1C(C)F (racemic) [Compound 549]
3.62^[a] | CCOC(=O)C(C#N)=C(NC(CC)c1ccccc1OC)c1cn(C)nc1C(F)F (racemic) [Compound 557]
1.63^[a] | CCOC(=O)C(C#N)=C(NC(C)CN(C)C)c1ncc(C(F)(F)F)cc1Cl (racemic) [Compound 583]
0.82^[a] | COC(=O)C(C#N)=C(NC(C)CN(C)C)c1cn(C)nc1C(F)F (racemic) [Compound 587]
1.5^[a] | CCOC(=O)C(C#N)=C(NC(C)C(N)=O)c1cn(C)nc1C(F)F (racemic) [Compound 590]
0.58^[a] | COC(=O)C(C#N)=C(NC(C)CN)c1cn(C)nc1C(F)F (racemic) [Compound 591]
2.17^[a] | CCOC(=O)C(C#N)=C(NC(C)C(N)=O)c1ncc(C(F)(F)F)cc1Cl (racemic) [Compound 592]
4.01^[a] | CCOC(=O)C(C#N)=C(NC(C)C(=O)Nc1ccc2ccccc2c1)c1sccc1C(F)(F)F (racemic) [Compound 653]
4.89^[a] | CCOC(=O)C(C#N)=C(NC(C)COc1c(C)cccc1C)c1sccc1C(F)(F)F (racemic) [Compound 654]
3.31^[a] | CCOC(=O)C(C#N)=C(NC(C)COC)c1sccc1C(F)(F)F (racemic) [Compound 655]

Log P | Structure (SMILES)
2.13^[a] | CCOC(=O)C(C#N)=C(NC(C)C(N)=O)c1sccc1C(F)(F)F (racemic) [Compound 660]
3.69^[a] | COC(=O)C(C#N)=C(NC(C)C(=O)Nc1ccc2ccccc2c1)c1sc(C)nc1C(F)(F)F (racemic) [Compound 661]
1.78^[a] | COC(=O)C(C#N)=C(NC(C)C(N)=O)c1sc(C)nc1C(F)(F)F (racemic) [Compound 668]
3.89^[a] | CCOC(=O)C(C#N)=C(NC(C)C(=O)Nc1ccc2ccccc2c1)c1sccc1Br (racemic) [Compound 669]
3.33^[a] | CCOC(=O)C(C#N)=C(NC(C)C(=O)OCC)c1sccc1Br (racemic) [Compound 672]
2.84^[a] | CCOC(=O)C(C#N)=C(NC(C(=O)OC)C(C)C)c1cn(C)nc1C(F)F (racemic) [Compound 674]
3.11^[a] | CCOC(=O)C(C#N)=C(NC(C)COC)c1sc(C)nc1C(F)(F)F (racemic) [Compound 678]
3.29^[a] | CCOC(=O)C(C#N)=C(NC(C)C(=O)OCC)c1sc(C)nc1C(F)(F)F (racemic) [Compound 679]
3.64^[a] | CCOC(=O)C(C#N)=C(NC(C(=O)OC)C(C)C)c1sc(C)nc1C(F)(F)F (racemic) [Compound 681]
3.46^[a] | CCOC(=O)C(C#N)=C(NC(C)CC(C)C)c1cn(C)nc1C(F)F (racemic) [Compound 780]
4.54^[a] | CCOC(=O)C(C#N)=C(NC(C)CC(C)C)c1sccc1C(F)(F)F (racemic) [Compound 781]
3.9^[a] | COC(=O)C(C#N)=C(NC(C)CC(C)C)c1sc(C)nc1C(F)(F)F (racemic) [Compound 782]
4.46^[a] | CCOC(=O)C(C#N)=C(NC(C)CC(C)C)c1sccc1Br (racemic) [Compound 783]
2.82^[a] | CCOC(=O)C(C#N)=C(NC(C)C(F)(F)F)c1cn(C)nc1OC (racemic) [Compound 808]
3.75^[a] | CCOC(=O)C(C#N)=C(NC(C)C(F)(F)F)c1sc(Cl)nc1Cl (racemic) [Compound 809]
4.11^[a] | CCOC(=O)C(C#N)=C(NC(C)C(F)(F)F)c1cc(Cl)sc1Cl (racemic) [Compound 810]
3.64^[a] | CCOC(=O)C(C#N)=C(NC(C)C(F)(F)F)c1cn(C)cc1C(F)(F)F (racemic) [Compound 812]

Same assay, conditions: pH 7.5

Log P | Structure (SMILES)
2.13 | COCC(C)NC(=C(C#N)C(=O)OC)c1cccnc1Cl (racemic) [Compound 564]
2.38 | COC(=O)C(C#N)=C(NC(C)CSC)c1cccnc1Cl (racemic) [Compound 576]
3.04 | CCOC(=O)C(C#N)=C(NC(C)C(F)(F)F)c1cccnc1OC (racemic) [Compound 807]

Structure (SMILES) | Log P
CCOC(=O)C(C#N)=C(NC(C)CC(C)C)c1cccnc1Cl (racemic) [Compound 778] | 3.62
